PubChem BioAssay (NCI)
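Dose response: 5 concentrations. Exposure: 48 h. Format: 96-well plates. Endpoint: linear interpolation; highest concentration if not reached. Abbreviation: GI50, concentration required for 50% inhibition of growth. TGI denotes the concentration required for complete inhibition of growth.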

Tests used:
Assay in all cases: DTP human tumour cell line panel, 48 h
[1] = system: 786-0 renal
[2] = system: A498 renal
[3] = system: A549 NSCLC
[4] = system: ACHN renal
[5] = system: BT-549 breast
[6] = system: CAKI-1 renal
[7] = system: CCRF-CEM leukemia
[8] = system: COLO 205 colon
[9] = system: DU-145 prostate
[10] = system: HCC-2998 colon
[11] = system: HCT-116 colon
[12] = system: HCT-15 colon
[13] = system: HL-60(TB) leukemia
[14] = system: HOP-62 NSCLC
[15] = system: HOP-92 NSCLC
[16] = system: HS 578T breast
[17] = system: HT29 colon
[18] = system: IGROV1 ovarian
[19] = system: K-562 leukemia
[20] = system: KM12 colon
[21] = system: LOX IMVI melanoma
[22] = system: M14 melanoma
[23] = system: MALME-3M melanoma
[24] = system: MCF7 breast
[25] = system: MDA-MB-231 breast
[26] = system: MDA-MB-435
[27] = system: MOLT-4 leukemia
[28] = system: NCI-H226 lung
[29] = system: NCI-H23 lung
[30] = system: NCI-H460 lung
[31] = system: NCI-H522 lung
[32] = system: NCI/ADR-RES ovarian
[33] = system: OVCAR-3 ovarian
[34] = system: OVCAR-4 ovarian
[35] = system: OVCAR-5 ovarian
[36] = system: OVCAR-8 ovarian
[37] = system: PC-3 prostate
[38] = system: RPMI-8226 leukemia
[39] = system: RXF 393 renal
[40] = system: SF-268 CNS
[41] = system: SF-539 CNS
[42] = system: SK-MEL-2 melanoma
[43] = system: SK-MEL-28 melanoma
[44] = system: SK-MEL-5 melanoma
[45] = system: SK-OV-3 ovarian
[46] = system: SN12C renal
[47] = system: SNB-19 CNS
[48] = system: SR leukemia
[49] = system: SW-620 colon
[50] = system: T-47D breast
[51] = system: TK-10 renal
[52] = system: U251 CNS
[53] = system: UACC-257 melanoma
[54] = system: UACC-62 melanoma
[55] = system: UO-31 renal

COc1cc(-c2nc(-c3nc4ccccc4[nH]3)cc3c2[nH]c2ccccc23)cc(OC)c1OC
GI50 [1]: 50.7 µM
TGI [1]: > 100 µM
GI50 [2]: 2.43 µM
TGI [2]: > 100 µM
GI50 [3]: 3.2 µM
TGI [3]: > 100 µM
GI50 [4]: 4.86 µM
TGI [4]: > 100 µM
GI50 [5]: 5.48 µM
TGI [5]: > 100 µM
GI50 [6]: 7.03 µM
TGI [6]: > 100 µM
GI50 [7]: 3.96 µM
TGI [7]: > 100 µM
GI50 [8]: 4.58 µM
TGI [8]: > 100 µM
GI50 [9]: 6.27 µM
TGI [9]: > 100 µM
GI50 [10]: 7.32 µM
TGI [10]: > 100 µM
GI50 [11]: 3.95 µM
TGI [11]: > 100 µM
GI50 [12]: 4.14 µM
TGI [12]: > 100 µM
GI50 [13]: 4.37 µM
TGI [13]: > 100 µM
GI50 [14]: 5.87 µM
TGI [14]: > 100 µM
GI50 [15]: 0.526 µM
TGI [15]: 5.38 µM
GI50 [16]: 4.44 µM
TGI [16]: > 100 µM
GI50 [17]: 6.87 µM
TGI [17]: > 100 µM
GI50 [18]: 2.94 µM
TGI [18]: > 100 µM
GI50 [19]: 4.33 µM
TGI [19]: > 100 µM
GI50 [20]: 3.67 µM
TGI [20]: > 100 µM
GI50 [21]: 4.72 µM
TGI [21]: > 100 µM
GI50 [22]: 4.18 µM
TGI [22]: > 100 µM
GI50 [23]: 4.31 µM
TGI [23]: > 100 µM
GI50 [24]: 4.11 µM
TGI [24]: > 100 µM
GI50 [25]: 8.38 µM
TGI [25]: > 100 µM
GI50 [26]: 3.65 µM
TGI [26]: > 100 µM
GI50 [27]: 3.93 µM
TGI [27]: > 100 µM
GI50 [28]: 7.19 µM
TGI [28]: > 100 µM
GI50 [29]: 4.4 µM
TGI [29]: > 100 µM
GI50 [30]: 3.96 µM
TGI [30]: > 100 µM
GI50 [31]: 3.51 µM
TGI [31]: > 100 µM
GI50 [32]: 3.59 µM
TGI [32]: > 100 µM
GI50 [33]: 6.2 µM
TGI [33]: > 100 µM
GI50 [34]: 47.4 µM
TGI [34]: > 100 µM
GI50 [35]: > 100 µM
TGI [35]: > 100 µM
GI50 [36]: 2.79 µM
TGI [36]: > 100 µM
GI50 [37]: 2.64 µM
TGI [37]: > 100 µM
GI50 [38]: 2.15 µM
TGI [38]: 8.61 µM
GI50 [39]: 3.25 µM
TGI [39]: > 100 µM
GI50 [40]: 4.81 µM
TGI [40]: > 100 µM
GI50 [41]: 23.1 µM
TGI [41]: > 100 µM
GI50 [42]: 3.58 µM
TGI [42]: > 100 µM
GI50 [43]: 6.89 µM
TGI [43]: > 100 µM
GI50 [44]: 2.99 µM
TGI [44]: > 100 µM
GI50 [45]: > 100 µM
TGI [45]: > 100 µM
GI50 [46]: 6.27 µM
TGI [46]: > 100 µM
GI50 [47]: 9.45 µM
TGI [47]: > 100 µM
GI50 [48]: 9.5 µM
TGI [48]: > 100 µM
GI50 [49]: 7.14 µM
TGI [49]: > 100 µM
GI50 [50]: 2.92 µM
TGI [50]: > 100 µM
GI50 [51]: 4.71 µM
TGI [51]: > 100 µM
GI50 [52]: 4.76 µM
TGI [52]: > 100 µM
GI50 [53]: 3.57 µM
TGI [53]: > 100 µM
GI50 [54]: 3.38 µM
TGI [54]: > 100 µM
GI50 [55]: 3.62 µM
TGI [55]: > 100 µM
